In ChEMBL document CHEMBL5316286, “Inhibition of the Ubiquitin Transfer Cascade by a Peptidomimetic Foldamer Mimicking the E2 N-Terminal Helix” (J Med Chem, 2023):
Values belong to the molecule of their own block, whether it stands above or below them. Activity calls are given as the source filed them. The rule behind the calls is not given here. *1 amine or outer side, *2 acyl side, *3 side chain or, on linkers, in order; H or OH if unused. Where a SMILES comes first, the peptide text is derived from it. [ ]: non-standard residue; d: D form. X1 = N=C(N)CCCC[C@H](N[*:1])C(=O)[*:2]

Columns and labels:
[1] = biological target: T1, E3 ubiquitin-protein ligase CHIP (Homo sapiens) (UniProt Q9UNE7); assay: (§1) Inhibition of N-terminal Flag-tagged full-length U-box E3 CHIP (unknown origin) self-ubiquitination expressed in Escherichia coli BL21 (DE3) cells assessed as decrease in polyubiquitination at upto 50 uM preincubated for 30 mins followed by ubiquitin addition measured after 1 hr by Western blot analysis; conditions: time 90.0 min
T1 sequence (whole entry): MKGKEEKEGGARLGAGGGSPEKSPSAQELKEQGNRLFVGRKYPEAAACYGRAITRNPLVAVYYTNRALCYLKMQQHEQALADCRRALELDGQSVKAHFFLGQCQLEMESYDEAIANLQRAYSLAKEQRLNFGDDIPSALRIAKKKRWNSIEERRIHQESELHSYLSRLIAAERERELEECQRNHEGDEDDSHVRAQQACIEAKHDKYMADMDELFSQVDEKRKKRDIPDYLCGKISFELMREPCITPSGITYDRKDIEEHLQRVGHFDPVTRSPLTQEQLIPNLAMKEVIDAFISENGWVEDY

[2] = biological target: T1, E3 ubiquitin-protein ligase CHIP (Homo sapiens); assay: Inhibition of N-terminal Flag-tagged full-length U-box E3 CHIP (unknown origin)-mediated CDK4 monoubiquitination expressed in Escherichia coli BL21 (DE3) cells upto 50 uM preincubated for 30 mins followed by ubiquitin addition measured after 1 hr by Western blot analysis; conditions: time 90.0 min
[3] = biological target: T1, E3 ubiquitin-protein ligase CHIP (Homo sapiens); assay: Inhibition of N-terminal Flag-tagged full-length U-box E3 CHIP (unknown origin) self-ubiquitination expressed in Escherichia coli BL21 (DE3) cells assessed as decrease in polyubiquitination at 50 uM preincubated for 30 mins followed by ubiquitin addition measured after 1 hr by Western blot analysis; conditions: time 90.0 min
[4] = biological target: T1, E3 ubiquitin-protein ligase CHIP (Homo sapiens); assay: as §1, with “inhibition of Uba1-UbcH5B-CHIP cascade” for “decrease in polyubiquitination”; conditions: time 90.0 min
[5] = Stability of compound in ammonium bicarbonate buffer at pH 7.8 at 0.1 mg/ml incubated for 24 hrs by HPLC/MS analysis; assay type: physicochemical; conditions: pH 7.8, 24 h
[6] = Stability of compound in human serum at 1 mg incubated for 24 hrs by HPLC analysis; assay type: ADME, cell-free
HEK293 = assay: Cytotoxicity against HEK293 cells assessed as cell membrane disruption upto 100 uM incubated for 24 hrs by DAPI/PI staining based confocal microscopy; assay type: toxicity; conditions: human, hek293, 24 h
[7] = biological target: T1, E3 ubiquitin-protein ligase CHIP (Homo sapiens); assay: Inhibition of CHIP-mediated CDK4 ubiquitination in HEK293T cells upto 50 uM preincubated for 14 hrs followed by MG132 addition measured after 12 hrs by Western blot analysis; assay type: cell-based; conditions: time 26.0 hrs
Homo sapiens = species: Homo sapiens; assay: Disruption of Uba1/UbcH5B (unknown origin) interaction assessed as inhibition of UbcH5B-ubiquitin conjugate formation at 50 uM preincubated for 30 mins followed by ubiquitin addition measured after 30 mins by Western blot analysis
[8] = biological target: Cyclin-dependent kinase 4 (Homo sapiens) (UniProt P11802); assay: Inhibition of CDK4 ubiquitination in HEK293 cells overexpressing CHIP upto 50 uM by Western blot analysis; assay type: cell-based
Chain of Cyclin-dependent kinase 4 (Homo sapiens) (P11802 whole entry): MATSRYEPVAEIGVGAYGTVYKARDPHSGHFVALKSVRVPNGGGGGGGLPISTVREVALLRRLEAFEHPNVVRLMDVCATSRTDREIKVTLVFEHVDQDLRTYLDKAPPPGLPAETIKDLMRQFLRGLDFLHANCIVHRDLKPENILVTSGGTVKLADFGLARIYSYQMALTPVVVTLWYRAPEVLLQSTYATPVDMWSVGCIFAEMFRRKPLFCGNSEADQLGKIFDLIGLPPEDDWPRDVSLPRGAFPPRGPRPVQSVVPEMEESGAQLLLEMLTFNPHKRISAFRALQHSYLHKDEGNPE

[9] = Aggregation propensity of the compound in D2O assessed as signal shift at 1 mM measured for 24 hrs by 1H-NMR analysis; assay type: physicochemical; conditions: 1000 µM
[10] = Aggregation propensity of the compound in D2O assessed as signal shift at 1 mM measured after 10 days by 1H-NMR analysis; assay type: physicochemical; conditions: 240 h, 1000 µM, time 10 day
[11] = biological target: T1, E3 ubiquitin-protein ligase CHIP (Homo sapiens); assay: Inhibition of CHIP (unknown origin) self-ubiquitination upto 50 uM in presence of ubiquitin-preloaded UbcH5B by Western blot analysis
Erythrocyte = assay: Hemolytic activity in human RBC assessed as cell membrane disruption upto 400 uM incubated for 1 hr by microplate reader analysis; assay type: toxicity, cell-based
[12] = biological target: T2, Ubiquitin-like modifier-activating enzyme 1 (Homo sapiens) (UniProt P22314); assay: Binding affinity to His-tagged Uba1 (unknown origin)-coated Ni-NTA beads assessed as measuring green fluorescence at 10 uM incubated for 30 mins by laser scanning microscopy
T2 sequence (whole entry): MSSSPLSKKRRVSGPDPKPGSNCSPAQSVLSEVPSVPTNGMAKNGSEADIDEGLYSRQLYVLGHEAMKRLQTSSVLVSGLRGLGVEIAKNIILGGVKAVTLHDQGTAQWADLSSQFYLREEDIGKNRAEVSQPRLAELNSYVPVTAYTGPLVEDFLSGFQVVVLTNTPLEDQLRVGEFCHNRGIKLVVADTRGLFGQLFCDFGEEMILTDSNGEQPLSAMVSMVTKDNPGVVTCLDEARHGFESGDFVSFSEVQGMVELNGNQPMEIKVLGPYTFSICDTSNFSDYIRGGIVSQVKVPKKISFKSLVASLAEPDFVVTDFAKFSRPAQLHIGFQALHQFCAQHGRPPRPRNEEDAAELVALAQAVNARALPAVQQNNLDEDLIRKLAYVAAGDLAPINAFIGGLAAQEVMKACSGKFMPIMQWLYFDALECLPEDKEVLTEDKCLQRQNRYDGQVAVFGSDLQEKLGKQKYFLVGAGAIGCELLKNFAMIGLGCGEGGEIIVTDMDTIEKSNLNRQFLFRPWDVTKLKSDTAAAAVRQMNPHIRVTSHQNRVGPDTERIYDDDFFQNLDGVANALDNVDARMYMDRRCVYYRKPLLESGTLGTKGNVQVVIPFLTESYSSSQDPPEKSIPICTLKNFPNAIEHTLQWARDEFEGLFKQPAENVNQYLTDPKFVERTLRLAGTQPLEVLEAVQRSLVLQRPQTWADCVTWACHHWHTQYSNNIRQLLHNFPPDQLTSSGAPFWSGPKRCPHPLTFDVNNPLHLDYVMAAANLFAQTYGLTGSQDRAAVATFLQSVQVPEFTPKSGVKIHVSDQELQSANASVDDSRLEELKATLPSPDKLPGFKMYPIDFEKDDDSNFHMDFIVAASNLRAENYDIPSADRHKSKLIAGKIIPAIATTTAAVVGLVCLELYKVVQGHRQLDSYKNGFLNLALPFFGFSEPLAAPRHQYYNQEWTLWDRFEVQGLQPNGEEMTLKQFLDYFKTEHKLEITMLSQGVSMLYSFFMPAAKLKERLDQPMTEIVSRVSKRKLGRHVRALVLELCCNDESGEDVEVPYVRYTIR

Structure (SMILES): CC(=O)N[C@H](CO)CN(CC(=O)N[C@H](C)CN(CC(=O)N[C@H](CCCCN)CN(CC(=O)N[C@H](CC(C)C)CN(CC(=O)N[C@H](CCCCN)CN(CC(=O)N[C@H](CC(C)C)CN(CC(=O)N[C@H](CCC(=O)O)CN(CC(=O)N[C@H](CCCCN)CN(CC(N)=O)S(=O)(=O)CCN)S(=O)(=O)CC(C)C)S(=O)(=O)CCN)S(C)(=O)=O)S(=O)(=O)CCN)S(=O)(=O)CCN)S(=O)(=O)CC(C)C)S(=O)(=O)CC(C)C
- inhibition [4]: inactive

Structure (SMILES): CC(=O)N[C@H](CO)CN(CC(=O)N[C@H](C)CN(CC(=O)N[C@H](CCCCN)CN(CC(=O)N[C@H](CC(C)C)CN(CC(=O)N[C@H](CCCCN)CN(CC(=O)N[C@@H]1CCCCNC(=O)c2ccc(cc2)C(=O)NCCCC[C@H](CN(CC(N)=O)S(C)(=O)=O)NC(=O)CN(S(=O)(=O)CC(C)C)C[C@@H](CCC(=O)O)NC(=O)CN(S(C)(=O)=O)C1)S(C)(=O)=O)S(=O)(=O)CCN)S(=O)(=O)CCN)S(=O)(=O)CC(C)C)S(=O)(=O)CC(C)C
- inhibition [1]: inactive
- inhibition [2]: inactive

Structure (SMILES): CC[C@H](C)[C@H](NC(=O)[C@H](CCC(=O)O)NC(=O)[C@H](CCCCN)NC(=O)[C@H](CCSC)NC(=O)[C@@H](NC(=O)[C@H](CCCNC(=N)N)NC(=O)[C@H](CCCCN)NC(=O)[C@H](C)NC(=O)[C@H](CCCCC(=N)N)NC(=O)[C@H](CO)NC(=O)[C@H](CO)NC(C)=O)[C@@H](C)CC)C(=O)N[C@@H](CCC(N)=O)C(=O)N[C@@H](C)C(=O)N[C@H](C(=O)N[C@@H](CCCCN)C(=O)N[C@@H](CC(=O)O)C(N)=O)C(C)C (Ac-SS[X1]AKRIMKEIQAVKD-NH2)
- Stability [5]: Stable
- Stability [6]: Stable

Structure (SMILES): CC(=O)N[C@H](CO)CN(CC(=O)N[C@H](C)CN(CC(=O)N[C@H](CCCCN)CN(CC(=O)N[C@@H]1CCCCNC(=O)c2ccc(cc2)C(=O)NCCCC[C@H](CN(CC(=O)N[C@H](CCC(=O)O)CN(CC(=O)N[C@H](CCCCN)CN(CC(N)=O)S(=O)(=O)CCN)S(=O)(=O)CC(C)C)S(C)(=O)=O)NC(=O)CN(S(C)(=O)=O)C[C@@H](CCCCN)NC(=O)CN(S(C)(=O)=O)C1)S(=O)(=O)CCN)S(=O)(=O)CC(C)C)S(=O)(=O)CC(C)C
- inhibition [1]: inactive
- inhibition [2]: inactive

Structure (SMILES): COc1ccc(S(=O)(=O)N(CC(=O)N[C@@H](CCCCN)CN(CC(=O)N[C@@H](CCCCN)CN(CC(=O)N[C@@H](CC(C)C)CN(CC(=O)N[C@@H](CCCCN)CN(CC(=O)N[C@@H](CC(C)C)CN(CC(=O)N[C@@H](CCCCN)CN(CC(=O)N[C@@H](CC(C)C)CN(CC(N)=O)S(=O)(=O)CCN)S(C)(=O)=O)S(=O)(=O)CC(C)C)S(C)(=O)=O)S(=O)(=O)CCN)S(=O)(=O)CCN)S(C)(=O)=O)C[C@H](CCCCN)NC(C)=O)cc1
- inhibition [4]: inactive
- Activity [12]: inactive

Now from value to molecule, other results behind:

- inhibition [1]: inactive
- inhibition [2]: inactive
Structure (SMILES): CC(=O)N[C@H](CO)CN(CC(=O)N[C@@H]1CCCCNC(=O)c2ccc(cc2)C(=O)NCCCC[C@H](CN(CC(=O)N[C@H](CCCCN)CN(CC(=O)N[C@H](CC(C)C)CN(CC(=O)N[C@H](CCC(=O)O)CN(CC(=O)N[C@H](CCCCN)CN(CC(N)=O)S(=O)(=O)CCN)S(=O)(=O)CC(C)C)S(=O)(=O)CCN)S(C)(=O)=O)S(C)(=O)=O)NC(=O)CN(S(=O)(=O)CCN)C[C@@H](CCCCN)NC(=O)CN(S(C)(=O)=O)C1)S(=O)(=O)CC(C)C

- inhibition [2]: inactive
- inhibition [3]: Active
Structure (SMILES): COc1ccc(S(=O)(=O)N(CC(=O)N[C@H](CCCCN)CN(CC(=O)N[C@H](CCCCN)CN(CC(=O)N[C@H](CC(C)C)CN(CC(=O)N[C@H](CCCCN)CN(CC(=O)N[C@@H]2CCCCNC(=O)c3ccc(cc3)C(=O)NCCCC[C@H](CN(CC(N)=O)S(C)(=O)=O)NC(=O)CN(S(C)(=O)=O)C[C@@H](CCCCN)NC(=O)CN(S(C)(=O)=O)C2)S(C)(=O)=O)S(=O)(=O)CCN)S(=O)(=O)CCN)S(C)(=O)=O)C[C@@H](CCCCN)NC(C)=O)cc1

- inhibition [7]: Active
- inhibition (Homo sapiens): Active
- Stability [5]: Stable
- inhibition [8]: Active
- inhibition [2]: Active
- Stability [6]: Stable
- Activity [9]: Not Active
- Activity [10]: Active
- inhibition [3]: Active
- inhibition [11]: inactive
Structure (SMILES): COc1ccc(S(=O)(=O)N(CC(=O)N[C@@H]2CCCCNC(=O)c3ccc(cc3)C(=O)NCCCC[C@H](CN(CC(=O)N[C@H](CCCCN)CN(CC(=O)N[C@H](CC(C)C)CN(CC(=O)N[C@H](CCCCN)CN(CC(=O)N[C@H](CC(C)C)CN(CC(N)=O)S(=O)(=O)CCN)S(C)(=O)=O)S(=O)(=O)CC(C)C)S(C)(=O)=O)S(C)(=O)=O)NC(=O)CN(S(=O)(=O)CCN)C[C@@H](CCCCN)NC(=O)CN(S(C)(=O)=O)C2)C[C@@H](CCCCN)NC(C)=O)cc1
- Activity (HEK293): Non-Toxic
- Activity (Erythrocyte): Non-Toxic
